In one experiment the target is PI3K-α (Homo sapiens, UniProt P42336). As to the kind of experiment: PI3K-alpha fluorescence polarization assay. As to conditions: read-out: IC50 PI3Kα. A general note: Polarisation of emitted light reports the rotation of a fluorescent probe.
Experiment [1] has as its system human breast MDA-MB-361 tumor cell line. Description: In vitro cell culture growth assay (MTS), MDA-MB-361. Format: cell-based.
Another experiment has as its target Human mTOR (FLAG-TOR) (Homo sapiens, UniProt P42345). Description: mTOR kinase assay (DELFIA format, purified enzyme). The class given is biochemical.
Experiment [2] has as its system human prostate PC3-mm2 tumor cell line. As to the kind of experiment: In vitro cell culture growth assay (MTS), PC3-mm2. Format: cell-based.
In another experiment the target is PI3K-γ (Homo sapiens, UniProt P48736). As to the kind of experiment: PI3K-gamma fluorescence polarization assay. As to conditions: read-out: IC50 PI3Kγ.
The mark [3] stands for this setting: Homo sapiens, MDA-MB-361, 72 h, MTS cell growth assay, three days after drug treatment, read-out: IC50 MDA-MB-361.
[4] abbreviates: Homo sapiens, PC3MM2, 72 h, MTS cell growth assay, three days after drug treatment, read-out: IC50 PC3-mm2.
[5] abbreviates: Homo sapiens, MDA-MB-361, 72 h, read-out: IC50 MDA-MB-361.
Setting [6] is: Homo sapiens, PC3MM2, 72 h, read-out: IC50 PC3-mm2.
[7] abbreviates: Homo sapiens, PC3MM2, 72 h, MTS cell growth assay, three days after drug treatment, PC3-mm2 cells, read-out: IC50 PC3-mm2.
Where [8] appears, read: Homo sapiens, MDA-MB-361, 72 h, MTS cell growth assay, three days after drug treatment, MDA-MB-361 cells, read-out: IC50 MDA-MB-361.

Several values for one entry are separate records, joined by “and”; a condition that tells them apart may be missing. Equal values may be shown once. Read-outs that look alike come from different tables or passages of the source.

Chain of Human mTOR (FLAG-TOR) (P42345 1360-2549 limits assumed): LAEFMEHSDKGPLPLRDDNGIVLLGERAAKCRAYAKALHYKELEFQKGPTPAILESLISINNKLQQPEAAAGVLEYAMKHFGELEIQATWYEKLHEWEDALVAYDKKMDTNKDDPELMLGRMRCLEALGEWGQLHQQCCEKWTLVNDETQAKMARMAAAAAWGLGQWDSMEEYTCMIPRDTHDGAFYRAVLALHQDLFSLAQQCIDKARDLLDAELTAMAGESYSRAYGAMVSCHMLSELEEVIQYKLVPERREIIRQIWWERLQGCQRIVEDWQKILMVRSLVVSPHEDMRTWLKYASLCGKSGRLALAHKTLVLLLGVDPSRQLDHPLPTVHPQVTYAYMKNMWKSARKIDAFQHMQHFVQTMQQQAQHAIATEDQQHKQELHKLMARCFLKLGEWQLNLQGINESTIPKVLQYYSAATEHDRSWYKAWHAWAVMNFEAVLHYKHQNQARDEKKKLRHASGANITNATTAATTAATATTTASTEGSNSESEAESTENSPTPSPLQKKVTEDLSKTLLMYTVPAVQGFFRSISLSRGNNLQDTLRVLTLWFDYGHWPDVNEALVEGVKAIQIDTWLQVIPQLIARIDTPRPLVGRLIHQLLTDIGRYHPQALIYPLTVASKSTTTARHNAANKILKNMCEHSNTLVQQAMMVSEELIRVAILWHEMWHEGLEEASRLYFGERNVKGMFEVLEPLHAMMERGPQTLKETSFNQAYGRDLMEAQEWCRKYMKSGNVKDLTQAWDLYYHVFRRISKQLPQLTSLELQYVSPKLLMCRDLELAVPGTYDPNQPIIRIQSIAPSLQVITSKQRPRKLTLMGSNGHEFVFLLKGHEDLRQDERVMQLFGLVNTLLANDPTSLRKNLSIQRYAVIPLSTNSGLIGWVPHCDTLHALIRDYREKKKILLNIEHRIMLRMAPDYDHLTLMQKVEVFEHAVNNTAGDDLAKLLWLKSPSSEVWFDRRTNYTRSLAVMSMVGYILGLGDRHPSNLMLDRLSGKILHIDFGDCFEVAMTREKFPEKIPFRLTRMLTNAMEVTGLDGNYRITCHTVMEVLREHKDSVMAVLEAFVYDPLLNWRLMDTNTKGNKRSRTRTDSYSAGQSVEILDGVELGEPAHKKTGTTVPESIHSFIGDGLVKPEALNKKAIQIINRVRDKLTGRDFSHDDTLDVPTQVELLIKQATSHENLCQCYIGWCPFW
Chain of PI3K-γ (P48736 whole entry, species assumed): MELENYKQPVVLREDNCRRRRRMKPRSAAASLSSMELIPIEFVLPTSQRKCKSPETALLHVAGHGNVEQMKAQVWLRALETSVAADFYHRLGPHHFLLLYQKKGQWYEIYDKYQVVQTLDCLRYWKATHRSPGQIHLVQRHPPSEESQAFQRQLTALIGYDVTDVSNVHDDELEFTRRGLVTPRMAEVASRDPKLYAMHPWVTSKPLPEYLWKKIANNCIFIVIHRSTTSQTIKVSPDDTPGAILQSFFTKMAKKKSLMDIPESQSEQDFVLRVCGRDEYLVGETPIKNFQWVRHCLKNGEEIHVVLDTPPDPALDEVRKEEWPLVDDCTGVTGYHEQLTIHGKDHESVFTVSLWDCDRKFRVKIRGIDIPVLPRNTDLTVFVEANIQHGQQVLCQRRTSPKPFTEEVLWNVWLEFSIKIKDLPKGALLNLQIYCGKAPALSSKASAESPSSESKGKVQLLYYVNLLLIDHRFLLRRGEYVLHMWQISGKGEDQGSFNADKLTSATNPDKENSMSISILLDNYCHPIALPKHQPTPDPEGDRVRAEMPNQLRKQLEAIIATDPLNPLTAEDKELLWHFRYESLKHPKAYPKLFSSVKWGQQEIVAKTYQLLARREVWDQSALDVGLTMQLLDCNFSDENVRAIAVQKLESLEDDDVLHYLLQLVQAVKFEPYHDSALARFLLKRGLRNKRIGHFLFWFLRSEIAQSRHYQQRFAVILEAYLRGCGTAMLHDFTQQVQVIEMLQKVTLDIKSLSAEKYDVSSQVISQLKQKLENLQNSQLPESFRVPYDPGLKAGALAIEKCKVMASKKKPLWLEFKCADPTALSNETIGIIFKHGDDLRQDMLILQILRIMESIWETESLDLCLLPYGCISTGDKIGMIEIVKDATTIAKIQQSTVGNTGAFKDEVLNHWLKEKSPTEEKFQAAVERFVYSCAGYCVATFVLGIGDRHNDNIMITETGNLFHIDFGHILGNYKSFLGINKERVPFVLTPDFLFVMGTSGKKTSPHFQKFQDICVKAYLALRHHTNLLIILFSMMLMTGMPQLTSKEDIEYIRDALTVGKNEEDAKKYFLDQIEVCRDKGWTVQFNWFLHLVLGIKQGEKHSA
Chain of PI3K-α (P42336 whole entry, species assumed): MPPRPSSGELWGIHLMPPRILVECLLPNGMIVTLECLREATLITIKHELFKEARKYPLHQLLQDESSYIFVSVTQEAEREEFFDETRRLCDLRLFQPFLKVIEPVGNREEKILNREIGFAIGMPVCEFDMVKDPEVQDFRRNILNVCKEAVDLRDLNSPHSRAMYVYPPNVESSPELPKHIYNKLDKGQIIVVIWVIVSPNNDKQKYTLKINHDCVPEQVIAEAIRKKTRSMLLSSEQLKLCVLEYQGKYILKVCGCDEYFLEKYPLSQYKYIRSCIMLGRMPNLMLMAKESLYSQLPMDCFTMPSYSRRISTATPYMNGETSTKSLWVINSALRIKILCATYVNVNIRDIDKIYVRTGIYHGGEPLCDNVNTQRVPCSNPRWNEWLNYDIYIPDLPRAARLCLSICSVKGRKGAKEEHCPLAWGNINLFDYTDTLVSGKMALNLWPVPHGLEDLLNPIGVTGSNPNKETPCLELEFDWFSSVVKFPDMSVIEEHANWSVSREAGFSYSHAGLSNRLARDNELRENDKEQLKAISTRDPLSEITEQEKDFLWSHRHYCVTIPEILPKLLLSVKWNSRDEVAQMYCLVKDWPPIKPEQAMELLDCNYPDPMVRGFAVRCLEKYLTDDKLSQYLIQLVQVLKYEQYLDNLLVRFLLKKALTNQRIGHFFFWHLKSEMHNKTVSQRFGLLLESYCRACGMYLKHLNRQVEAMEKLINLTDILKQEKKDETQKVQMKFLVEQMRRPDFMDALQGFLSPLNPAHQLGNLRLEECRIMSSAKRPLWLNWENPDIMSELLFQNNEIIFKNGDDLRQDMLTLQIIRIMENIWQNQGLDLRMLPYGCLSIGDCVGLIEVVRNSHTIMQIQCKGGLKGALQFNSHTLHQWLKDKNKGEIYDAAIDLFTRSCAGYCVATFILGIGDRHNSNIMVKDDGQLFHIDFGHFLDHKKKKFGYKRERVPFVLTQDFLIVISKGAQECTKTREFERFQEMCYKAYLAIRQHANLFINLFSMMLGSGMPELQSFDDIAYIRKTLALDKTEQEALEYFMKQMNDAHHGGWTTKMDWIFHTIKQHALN
Chain of PI3K-α (P27986 whole entry partner, species assumed): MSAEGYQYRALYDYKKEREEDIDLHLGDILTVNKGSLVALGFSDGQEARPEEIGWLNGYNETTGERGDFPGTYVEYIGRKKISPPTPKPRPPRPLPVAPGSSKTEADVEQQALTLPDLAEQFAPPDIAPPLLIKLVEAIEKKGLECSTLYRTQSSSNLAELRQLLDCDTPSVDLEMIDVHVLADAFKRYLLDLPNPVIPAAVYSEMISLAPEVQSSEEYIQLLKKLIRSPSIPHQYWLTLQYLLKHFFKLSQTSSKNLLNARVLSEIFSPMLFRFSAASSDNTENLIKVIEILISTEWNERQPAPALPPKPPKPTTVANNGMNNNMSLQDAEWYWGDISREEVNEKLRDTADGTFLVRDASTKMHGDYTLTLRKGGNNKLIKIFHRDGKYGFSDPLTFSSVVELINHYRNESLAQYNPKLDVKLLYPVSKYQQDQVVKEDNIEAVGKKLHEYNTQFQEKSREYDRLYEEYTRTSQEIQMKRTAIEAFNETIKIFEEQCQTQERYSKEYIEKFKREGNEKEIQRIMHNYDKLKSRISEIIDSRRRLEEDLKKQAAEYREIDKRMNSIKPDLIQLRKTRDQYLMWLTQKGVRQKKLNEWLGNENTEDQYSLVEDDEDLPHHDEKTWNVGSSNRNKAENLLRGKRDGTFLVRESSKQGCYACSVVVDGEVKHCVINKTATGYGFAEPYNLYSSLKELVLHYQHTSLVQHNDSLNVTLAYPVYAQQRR

Broadly, the IC50 is the midpoint of a concentration-inhibition curve. On to “1-{4-[4-(4-methylphenyl)-6-morpholin-4-yl-1,3,5-triazin-2-yl]phenyl}-3-[4-(pyrrolidin-1-ylcarbonyl)phenyl]urea [Example 553]”, for which the IC50 on PI3K-α was determined as 12.5 nM; in experiment [1] (MTS cell growth assay, three days after drug treatment, MDA-MB-361 cells, read-out: IC50 MDA-MB-361) it was 113 nM; on Human mTOR (FLAG-TOR) (read-out: IC50 mTOR) it was 19.5 nM; in experiment [2] (MTS cell growth assay, three days after drug treatment, PC3-mm2 cells, read-out: IC50 PC3-mm2), 522 nM; on PI3K-γ, 72 nM.
As for `O=C(Nc1ccncc1)Nc1ccc(-c2nc(N3CCOCC3)nc(N3CCOCC3)n2)cc1` [Example 1, 1-[4-(4,6-dimorpholin-4-yl-1,3,5-triazin-2-yl)phenyl]-3-pyridin-4-ylurea], the half-inhibitory concentration (IC50) came out at 3 nM at PI3K-α; 45 nM in experiment [1] (Homo sapiens, MDA-MB-361, 72 h, read-out: IC50 MDA-MB-361, MTS cell growth assay, three days after drug treatment); 1.3 nM at Human mTOR (FLAG-TOR) (read-out: IC50 mTOR); 43 nM in experiment [2] (Homo sapiens, PC3MM2, 72 h, read-out: IC50 PC3-mm2, MTS cell growth assay, three days after drug treatment); 29 nM at PI3K-γ.
Consider `O=C(Nc1ccccc1)Nc1ccc(-c2nc(N3CCOCC3)nc(N3CCOCC3)n2)cc1` [Example 3, 1-[4-(4,6-dimorpholin-4-yl-1,3,5-triazin-2-yl)phenyl]-3-phenylurea], for which the concentration for half-maximal inhibition (IC50) on PI3K-α came out at 3 nM; in experiment [1] (setting [3]), 45 nM; on Human mTOR (FLAG-TOR) (read-out: IC50 mTOR), 3.85 nM; in experiment [2] (setting [4]), 43 nM; at PI3K-γ it was 27 nM.
For `Cc1ccc(NC(=O)Nc2ccc(-c3nc(N4CCOCC4)nc(N4CCOCC4)n3)cc2)cc1` [Example 5, 1-[4-(4,6-dimorpholin-4-yl-1,3,5-triazin-2-yl)phenyl]-3-(4-methylphenyl)urea], the 50% inhibitory concentration (IC50) stood at 17 nM at PI3K-α; 45 nM in experiment [1] (setting [3]); 6.3 nM at Human mTOR (FLAG-TOR) (read-out: IC50 mTOR); 43 nM in experiment [2] (setting [4]); 438 nM on PI3K-γ.
As for `O=C(Nc1ccc(F)cc1)Nc1ccc(-c2nc(N3CCOCC3)nc(N3CCOCC3)n2)cc1` [Example 6, 1-[4-(4,6-dimorpholin-4-yl-1,3,5-triazin-2-yl)phenyl]-3-(4-fluorophenyl)urea], the IC50 at PI3K-α is 6 nM; in experiment [1] (setting [3]), 45 nM; on Human mTOR (FLAG-TOR) (read-out: IC50 mTOR), 6 nM; in experiment [2] (setting [4]) it was 43 nM; on PI3K-γ, 53 nM.
On to `O=C(Nc1ccc(Cl)cc1)Nc1ccc(-c2nc(N3CCOCC3)nc(N3CCOCC3)n2)cc1` [Example 8, 1-(4-chlorophenyl)-3-[4-(4,6-dimorpholin-4-yl-1,3,5-triazin-2-yl)phenyl]-urea], for which the concentration for half-maximal inhibition (IC50) at PI3K-α is 20 nM; on PI3K-α (listed as 10), 75 nM; in experiment [1] (MTS cell growth assay, three days after drug treatment, listed as 10, read-out: IC50 MDA-MB-361), 2710 nM; on Human mTOR (FLAG-TOR) (read-out: IC50 mTOR) it was 8 nM and 68 nM; in experiment [2] (MTS cell growth assay, three days after drug treatment, listed as 10, read-out: IC50 PC3-mm2), 1780 nM.
Consider `COc1ccc(NC(=O)Nc2ccc(-c3nc(N4CCOCC4)nc(N4CCOCC4)n3)cc2)cc1` [Example 9, 1-[4-(4,6-dimorpholin-4-yl-1,3,5-triazin-2-yl)phenyl]-3-(4-methoxyphenyl)urea], for which the IC50 at PI3K-α came to 10 nM; in experiment [1] (setting [3]) it was 102 nM; at Human mTOR (FLAG-TOR) (read-out: IC50 mTOR) it was 4 nM; in experiment [2] (setting [4]) it was 161 nM; on PI3K-γ it was 65 nM.
Turning to `CC(O)c1ccc(NC(=O)Nc2ccc(-c3nc(N4CCOCC4)nc(N4CCOCC4)n3)cc2)cc1` (stereo not shown) [Example 52, 1-[4-(4,6-dimorpholin-4-yl-1,3,5-triazin-2-yl)phenyl]-3-[4-(1-hydroxyethyl)phenyl]urea], the IC50 in experiment [1] (setting [3]) is under 30 nM; on Human mTOR (FLAG-TOR) (read-out: IC50 mTOR), 1 nM; in experiment [2] (setting [4]) it was 49 nM.
In the case of `CC(C)Oc1nc(-c2ccc(NC(=O)Nc3ccc(C(=O)NC4CCN(C)CC4)cc3)cc2)nc(N2CCOCC2)n1` [Example 97, 4-({[4-(4-isopropoxy-6-morpholin-4-yl-1,3,5-triazin-2-yl)phenyl]carbamoyl}amino)-N-(1-methylpiperidin-4-yl)benzamide], the IC50 is under 30 nM in experiment [1] (setting [5]); 1.1 nM and 1.2 nM on Human mTOR (FLAG-TOR) (read-out: IC50 mTOR); 52 nM in experiment [2] (setting [6]).
`CC(C)Oc1nc(-c2ccc(NC(=O)Nc3ccc(C(=O)NCCN(C)C)cc3)cc2)nc(N2CCOCC2)n1` [Example 187, N-[2-(dimethylamino)ethyl]-4-({[4-(4-isopropoxy-6-morpholin-4-yl-1,3,5-triazin-2-yl)phenyl]carbamoyl}amino)benzamide]: the IC50 is 3 nM at PI3K-α, 11 nM in experiment [1] (setting [5]), 3.5 nM against Human mTOR (FLAG-TOR) (IC50 mTOR) and 41 nM in experiment [2] (setting [6]).
Take `CN(C)CCN(C)C(=O)c1ccc(NC(=O)Nc2ccc(-c3nc(N4CCC4)nc(N4CCOCC4)n3)cc2)cc1` [Example 197, 4-({[4-(4-azetidin-1-yl-6-morpholin-4-yl-1,3,5-triazin-2-yl)phenyl]carbamoyl}amino)-N-[2-(dimethylamino)ethyl]-N-methylbenzamide]: the results for the concentration for half-maximal inhibition (IC50) (in experiment [1] (setting [3]); at Human mTOR (FLAG-TOR) (read-out: IC50 mTOR); in experiment [2] (setting [4])) were 17 nM, 24 nM and 49 nM, respectively.
Turning to `CCN(CC)C(=O)[n+]1ccc(NC(=O)Nc2ccc(-c3nc(N4CCOCC4)nc(N4C5CCC4COC5)n3)cc2)cc1` [Example 201, 1-(diethylcarbamoyl)-4-[({4-[4-morpholin-4-yl-6-(3-oxa-8-azabicyclo[3.2.1]oct-8-yl)-1,3,5-triazin-2-yl]phenyl}carbamoyl)amino]pyridinium], the IC50 is 29 nM in experiment [1] (setting [3]), 0.9 nM at Human mTOR (FLAG-TOR) (read-out: IC50 mTOR), 44 nM in experiment [2] (setting [7]) and 44 nM in experiment [2] (setting [4]).
Take `COc1nc(-c2ccc(NC(=O)Nc3ccc(C(=O)N(C)CCN(C)C)cc3)cc2)nc(N2CCOCC2)n1` [Example 243, N-[2-(dimethylamino)ethyl]-4-({[4-(4-methoxy-6-morpholin-4-yl-1,3,5-triazin-2-yl)phenyl]carbamoyl}amino)-N-methylbenzamide]: the IC50 on PI3K-α stood at 1 nM; on PI3K-α (listed as 720), 0.4 nM; in experiment [1] (setting [5]), 15 nM; against Human mTOR (FLAG-TOR) (IC50 mTOR), 7.7 nM; in experiment [2] (setting [6]), 34 nM.
For the compound `COc1nc(-c2ccc(NC(=O)Nc3ccc(C(=O)NCCN(C)C)cc3)cc2)nc(N2CCOCC2)n1` [Example 244, N-[2-(dimethylamino)ethyl]-4-({[4-(4-methoxy-6-morpholin-4-yl-1,3,5-triazin-2-yl)phenyl]carbamoyl}amino)benzamide], the IC50 is 1 nM on PI3K-α; 0.6 nM on PI3K-α (listed as 721); under 31 nM in experiment [1] (setting [5]); 5.1 nM and 5.65 nM against Human mTOR (FLAG-TOR) (IC50 mTOR); 71 nM in experiment [2] (setting [6]).
Take `CC(C)N1CCN(C(=O)c2ccc(NC(=O)Nc3ccc(-c4nc(N5CCC5)nc(N5CCOCC5)n4)cc3)cc2)CC1` [Example 492, 1-[4-(4-azetidin-1-yl-6-morpholin-4-yl-1,3,5-triazin-2-yl)phenyl]-3-(4-{[4-(1-methylethyl)piperazin-1-yl]carbonyl}phenyl)urea]: the 50% inhibitory concentration (IC50) in experiment [1] (setting [8]) turned out to be 26 nM; on Human mTOR (FLAG-TOR) (read-out: IC50 mTOR), 18 nM; in experiment [2] (setting [7]) it was 57 nM; on PI3K-γ, 35 nM.
Turning to `O=C(Nc1ccc(C(=O)NCCN2CCCCC2)cc1)Nc1ccc(-c2nc(O[C@H]3CCOC3)nc(N3CCOCC3)n2)cc1` [Example 520, 4-{[(4-{4-morpholin-4-yl-6-[(3S)-tetrahydrofuran-3-yloxy]-1,3,5-triazin-2-yl}phenyl)carbamoyl]amino}-N-(2-piperidin-1-ylethyl)benzamide], the concentration for half-maximal inhibition (IC50) turned out to be 1.4 nM at PI3K-α, 5 nM in experiment [1] (setting [5]), 0.38 nM against Human mTOR (FLAG-TOR) (IC50 mTOR) and 18 nM in experiment [2] (setting [7]).
As to `CN1CCN(C(=O)c2ccc(NC(=O)Nc3ccc(-c4nc(N5CCCOCC5)nc(N5CCOCC5)n4)cc3)cc2)CC1` [Example 573, 1-{4-[(4-methylpiperazin-1-yl)carbonyl]phenyl}-3-{4-[4-morpholin-4-yl-6-(1,4-oxazepan-4-yl)-1,3,5-triazin-2-yl]phenyl}urea], the IC50 came to 99 nM in experiment [1] (setting [8]), 4 nM on Human mTOR (FLAG-TOR) (read-out: IC50 mTOR), 206 nM in experiment [2] (setting [7]) and 64 nM on PI3K-γ.
Take `O=C(Nc1ccc(C(=O)NCCN2CCOCC2)cc1)Nc1ccc(-c2nc(N3CCOCC3)nc(N3C4CCC3COC4)n2)cc1` [Example 702, N-(2-morpholin-4-ylethyl)-4-[({4-[4-morpholin-4-yl-6-(3-oxa-8-azabicyclo[3.2.1]oct-8-yl)-1,3,5-triazin-2-yl]phenyl}carbamoyl)amino]benzamide]: the IC50 in experiment [1] (Homo sapiens, 72 h, MTS cell growth assay, three days after drug treatment, MDA-MB-361 cells, read-out: IC50 MDA-MB-361) was found to be 4 nM; on Human mTOR (FLAG-TOR) (read-out: IC50 mTOR) it was 0.555 nM; in experiment [2] (setting [7]) it was 14 nM; on PI3K-γ, 126 nM.
For the compound `CC(C)N1CCN(C(=O)c2ccc(NC(=O)Nc3ccc(-c4nc(N5CCOCC5)nc(N5C6CCCC5COC6)n4)cc3)cc2)CC1` [Example 805, 1-(4-{[4-(1-methylethyl)piperazin-1-yl]carbonyl}phenyl)-3-{4-[4-morpholin-4-yl-6-(3-oxa-9-azabicyclo[3.3.1]non-9-yl)-1,3,5-triazin-2-yl]phenyl}urea], the 50% inhibitory concentration (IC50) came to 3 nM in experiment [1] (Homo sapiens, MDA-MB-361, 72 h, MDA-MB-361 cells, MTS, three days after drug treatment, read-out: IC50 MDA-MB-361); 0.415 nM on Human mTOR (FLAG-TOR) (read-out: IC50 mTOR); 13 nM in experiment [2] (Homo sapiens, PC3MM2, 72 h, PC3-mm2 cells, MTS, three days after drug treatment, read-out: IC50 PC3-mm2); 64 nM at PI3K-γ.

For the origin of these results see patent publication US20090304692A1, “TRIAZINE COMPOUNDS AS PI3 KINASE AND MTOR INHIBITORS” (Wyeth, priority 2008, published 2009).
